Data reported in article PMC6429183, “Identification of Compounds That Inhibit Estrogen-Related Receptor Alpha Signaling Using High-Throughput Screening Assays” (Molecules, 2019).
Several values for one entry are separate records, joined by “and”; a condition that tells them apart may be missing. Identical values can stand only once. Like-named read-outs stand apart in the source and are kept apart here.

What was measured:
[1] = tested on: ERR reporter HEK293 cells; assay: CellTiter-Fluor cell viability assay multiplexed with ERR reporter assay; assay type: cell-based
Description: (§1) ERR or PGC/ERR reporter HEK293 cells suspended in culture medium without puromycin were dispensed at 2500 cells/5 μL/well in tissue culture–treated 1536-well white assay plates (Greiner Bio-One North America, Monroe, NC, USA) using a Thermo Scientific Multidrop Combi (ThermoFisher Scientific, Inc.). […] After the cells were incubated at 37 °C with 5% CO2 for 6 h, 23 nL of compounds or control, XTC790, was transferred into the assay plates using a Wako Pintool station (Wako Automation, San Diego, CA, USA). The assay plates were incubated at 37 °C for 18 h, followed by the addition of 5 μL ONE-Glo luciferase reagent (Promega, Madison, WI, USA) using a Flying Reagent Dispenser (Aurora Discovery, Carlsbad, CA, USA). After 30 min of incubation at room temperature, the luminescence intensity of the assay plates was quantified using a ViewLux plate reader (PerkinElmer, Shelton, CT, USA). The assays were performed three times for each compound concentration. These ERR and PGC/ERR reporter assays were multiplexed with the CellTiter-Fluor Cell Viability Assay (Promega), a fluorescence-based cell viability assay, to assess compound cytotoxicity.
The qHTS data were analyzed as described previously. […] The DMSO-only compound plates at the beginning and end of the compound plate stack were used to correct the data set by applying an in-house pattern correction algorithm. The half maximum inhibition values (IC50) for each compound and maximum response (efficacy) values were obtained by fitting the concentration-response curves of each compound to a four-parameter Hill equation [91]. […] For each reading, the activity outcome of a test compound was first categorized by the average curve rank from the triplicate runs and the reproducibility calls. The final activity outcome of each compound was based on the ERR antagonist readout activity and cell viability counter screen.

[2] = tested on: PGC/ERR reporter HEK293 cells; assay: CellTiter-Fluor cell viability assay multiplexed with PGC/ERR reporter assay; assay type: cell-based; conditions: for EC50: Homo sapiens; for PGC/ERR-HEK293 Follow-Up Viability EC50: follow-up screen
Description: as §1
The qHTS data were analyzed as described previously. Each titration point was normalized relative to the positive control compound (XCT790 = −100%) and DMSO-only wells (0%) according to the following equation: % Activity = [(Vcompound − VDMSO)/(VDMSO − Vpos)] × 100, where Vcompound denotes the compound well values, Vpos denotes the median value of the positive control wells, and VDMSO denotes the median values of the DMSO-only wells. The DMSO-only compound plates at the beginning and end of the compound plate stack were used to correct the data set by applying an in-house pattern correction algorithm. The half maximum inhibition values (IC50) for each compound and maximum response (efficacy) values were obtained by fitting the concentration-response curves of each compound to a four-parameter Hill equation [91]. Compounds were designated as Class 1–4 according to the type of concentration–response curve observed. For each reading, the activity outcome of a test compound was first categorized by the average curve rank from the triplicate runs and the reproducibility calls. The final activity outcome of each compound was based on the ERR antagonist readout activity and cell viability counter screen.

IDH3α = assay: qRT-PCR mRNA expression of ERR downstream gene IDH3α; assay type: cell-based; conditions: ERR reporter cells, vs GAPDH, DMSO = 0%
Description: (§2) Total RNA was isolated from treated ERR reporter cells using an RNeasy Mini Kit (Qiagen, Germantown, MD, USA), homogenized using a QIAshredder (Qiagen), and reverse transcribed with a High-Capacity RNA-to-cDNA™ Kit (ThermoFisher Scientific, Inc.) following the manufacturers’ instructions. Expression of ERRα, COX8α, IDH3α, PPARα, COX4I1, and cytochrome c genes was normalized against GAPDH. All primers were purchased from ThermoFisher Scientific, Inc. Real-time PCR assays were performed in 384-well plates on a QuantStudio 5 (Applied Biosystems, Foster City, CA, USA) with TaqMan™ Gene Expression Master Mix (ThermoFisher Scientific, Inc.). Induction values were calculated using the equation: Fold = 2^ΔΔCt, where ΔCt represents the differences in cycle threshold numbers between each of the target genes and GAPDH, and ΔΔCt represents the relative change in these differences between control and treatment groups. Experimental data are presented as a mean of triplicate determinations ± SD. Statistical comparisons were made by t-test, while the statistical significance was set at p values of <0.05 (light blue), <0.01 (medium blue), and <0.001 (dark blue).

cytochrome c = assay: qRT-PCR mRNA expression of ERR downstream gene cytochrome c; assay type: cell-based; conditions: ERR reporter cells, vs GAPDH, DMSO = 0%
Description: as §2

[3] = tested on: Nrf2/antioxidant response element (ARE); assay: Nrf2/ARE-HepG2 β-lactamase reporter agonist assay; assay type: cell-based; conditions: agonist mode, heatmap outcome
Description: After the assay plates were incubated at 37 °C for 5–6 h, 23 nL of compounds dissolved in DMSO or positive controls were transferred to the assay plates via a Wako Pintool station (Wako). Except for ARE and p53, all other assays received 1 µL/well agonist (10 nM R1881 for AR; 0.5 and 5 nM β-estradiol for ERα and ERβ respectively; 300 µM CDCA for FXR; 50 nM Rosiglitazone for PPARγ; and 5 nM R5020 for PR) or assay medium using a Flying Reagent Dispenser (FRD). The assay plates were incubated for 16 h (AR, Nrf2/ARE, ERβ, FXR, p53, and PR), 17 h (PPARγ), or 18 h (ERα) at 37 °C, and 1 µL/well LiveBLAzer™ FRET-B/G CCF4-AM substrate (ThermoFisher Scientific, Inc.) detection mix was added using an FRD and the plates were incubated at room temperature for 2 h. […] Data were expressed as the ratio of 460/530 nm emission values.

[4] = molecular target: T1, ERRα with PGC-1α (PGC/ERR pathway) (Homo sapiens, UniProt P11474); assay: PGC/ERR reporter (luciferase) qHTS assay, PGC/ERR-HEK293; conditions: for EC50: mean ± SD, triplicate; for PGC/ERR-HEK293 Follow-Up Efficacy: follow-up screen; for PGC/ERR-HEK293 Follow-Up Efficacy / PGC/ERR-HEK293 Primary Efficacy: negative = antagonism, positive = agonism; for activity in the ERR/PGC assay: in words; for PGC/ERR-HEK293 Primary Efficacy: primary qHTS
T1 sequence (P11474 1-423): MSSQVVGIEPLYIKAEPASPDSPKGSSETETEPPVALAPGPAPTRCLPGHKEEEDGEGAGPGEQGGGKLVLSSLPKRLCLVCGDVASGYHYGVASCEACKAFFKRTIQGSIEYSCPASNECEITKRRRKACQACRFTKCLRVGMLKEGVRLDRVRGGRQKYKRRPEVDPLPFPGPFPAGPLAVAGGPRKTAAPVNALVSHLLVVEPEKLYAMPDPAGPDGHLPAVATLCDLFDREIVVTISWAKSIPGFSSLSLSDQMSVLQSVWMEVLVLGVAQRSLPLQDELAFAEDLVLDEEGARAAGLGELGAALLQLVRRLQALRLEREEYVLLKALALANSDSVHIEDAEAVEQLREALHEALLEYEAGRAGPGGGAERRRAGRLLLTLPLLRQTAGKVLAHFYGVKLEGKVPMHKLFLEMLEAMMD
Description: The ERR reporter HEK293 cells were cultured in high glucose DMEM medium (ThermoFisher Scientific, Inc., Waltham, MA, USA) supplemented with 10% fetal bovine serum (FBS; ThermoFisher Scientific, Inc.), 4 mM of L-glutamine (ThermoFisher Scientific, Inc.), 1 mM of sodium pyruvate (ThermoFisher Scientific, Inc.), 100 U/mL of penicillin and 100 mg/mL of streptomycin (ThermoFisher Scientific, Inc.). PGC/ERR reporter HEK293 cells were cultured in the same medium as the ERR reporter HEK293 cells with an additional 1 μg/mL puromycin (ThermoFisher Scientific, Inc.) as the selection marker for PGC-1α expression.
The DMSO-only compound plates at the beginning and end of the compound plate stack were used to correct the data set by applying an in-house pattern correction algorithm [90]. The half maximum inhibition values (IC50) for each compound and maximum response (efficacy) values were obtained by fitting the concentration-response curves of each compound to a four-parameter Hill equation [91]. […] For each reading, the activity outcome of a test compound was first categorized by the average curve rank from the triplicate runs and the reproducibility calls. The final activity outcome of each compound was based on the ERR antagonist readout activity and cell viability counter screen.

[5] = molecular target: T2, estrogen-related receptor alpha (ERRα) (Homo sapiens, UniProt P11474); assay: ERR reporter (luciferase) antagonist qHTS assay, ERR-HEK293; conditions: for EC50: mean ± SD, triplicate; for ERR-HEK293 Follow-Up Efficacy: follow-up screen; for ERR-HEK293 Follow-Up Efficacy / ERR-HEK293 Primary Efficacy: relative to XCT790 = −100%; for ERR-HEK293 Primary Efficacy: primary qHTS, DMSO = 0%
T2 sequence (P11474 1-423): T1 sequence (P11474 1-423)

COX8α = assay: qRT-PCR mRNA expression of ERR downstream gene COX8α; assay type: cell-based; conditions: 2 µM; ERR reporter cells; vs GAPDH, DMSO = 0%
Description: as §2

COX4I1 = assay: qRT-PCR mRNA expression of ERR downstream gene COX4I1; assay type: cell-based; conditions: ERR reporter cells, vs GAPDH, DMSO = 0%
Description: as §2, with “Experimental data are presented as a mean of triplicate determinations ± SD. Statistical comparisons were made by t-test, while the statistical significance was set at p values of <0.05 (light blue), <0.01 (medium blue), and <0.001 (dark blue).” left out

PPARα = assay: qRT-PCR mRNA expression of ERR downstream gene PPARα; assay type: cell-based; conditions: 20 µM; ERR reporter cells; vs GAPDH, DMSO = 0%
[6] = Homo sapiens, HEK293, primary qHTS, viability counter screen, read-out: ERR-HEK293 Primary Viability EC50 (converted)
[7] = HEK293, primary qHTS, read-out: PGC/ERR-HEK293 Primary Viability EC50 (converted)
[8] = PGC/ERR-HEK293 Follow-Up EC50, follow-up screen
[9] = PGC/ERR-HEK293 Primary EC50, primary qHTS, 18 h
[10] = ERR-HEK293 Follow-Up EC50, follow-up (confirmation) screen
[11] = ERR-HEK293 Primary EC50, primary qHTS, 18 h, 15 concentrations

Row | Structure (SMILES) | EC50 [1, 6] [nM] | ERR-HEK293 Follow-Up Viability EC50 ([1]; follow-up screen, viability) | EC50 [2, 7] [nM] | PGC/ERR-HEK293 Follow-Up Viability EC50 [2] | activity in the Nrf2-ARE assay [3] | EC50 [4, 8] [nM] | EC50 [4, 9] [nM] | PGC/ERR-HEK293 Follow-Up Efficacy [4] [%] | activity in the ERR/PGC assay [4] | PGC/ERR-HEK293 Primary Efficacy [4] [%] | EC50 [5, 10] [nM] | EC50 [5, 11] [nM] | ERR-HEK293 Follow-Up Efficacy [5] [%] | ERR-HEK293 Primary Efficacy [5] [%] | also measured
1 | COc1cc([C@@H]2c3cc4c(cc3[C@@H](O[C@@H]3O[C@@H]5CO[C@@H](C)O[C@H]5[C@H](O)[C@H]3O)[C@H]3COC(=O)[C@H]23)OCO4)cc(OC)c1O [Etoposide] | 56300 | Inactive | 56300 | Inactive | active agonists | 10700 ± 2440 | 2100 ± 526 | 89.3 ± 19.5 | agonist activity | 62.9 ± 2.71 | 8120 ± 4420 | 9240 ± 8560 | −88.9 ± 6.62 | −115 ± 6.85 | Percent inhibition of mRNA gene expression, IDH3α (IDH3α; 18 µM): 7.19 ± 23.5%; Percent inhibition of mRNA gene expression, Cytochrome C (cytochrome c; 18 µM): 6.55 ± 3.18%; activity in the ERR assay ([5]; in words): antagonistic activity
2 | Cc1nc(N)nc(N)c1-c1ccc(Cl)c(Cl)c1 [Methodichlorophen] |  | Inactive |  | Inactive | active agonists | 1570 ± 354 | 845 ± 97.1 | −61.5 ± 12.6 | antagonism | −68.4 ± 7.64 | 1600 ± 104 | 1060 ± 122 | −104 ± 7.68 | −90.9 ± 4.94 | ERR-HEK293 Primary Viability EC50 ([1]; primary qHTS, viability counter screen): Inactive; PGC/ERR-HEK293 Primary Viability EC50 ([2]; primary qHTS): Inactive; Percent inhibition of mRNA gene expression, COX8α (COX8α): 17.1 ± 29.5%; Percent inhibition of mRNA gene expression, IDH3α (IDH3α; 2 µM): 50.8% and 50.8 ± 8.69%; Percent inhibition of mRNA gene expression, COX4I1 (COX4I1; 2 µM): 12.5% and 12.5 ± 2.60%; Percent inhibition of mRNA gene expression, Cytochrome C (cytochrome c; 2 µM): 47.6% and 47.6 ± 7.45%; ERR-HEK293 Primary Efficacy ([5]; listed as methodichlorophen): −90.9%
3 | CC(C)C[C@H](NC(=O)[C@H](Cc1ccccc1)NC(=O)c1cnccn1)B(O)O [Bortezomib] | 65.6 |  | 62.8 |  | active agonists | 9.62 ± 4.52 | 16.9 ± 5.54 | −116 ± 12.7 | antagonism | −92.2 ± 11.8 | 16.7 ± 6.08 | 17 ± 7.81 | −125 ± 11.0 |  | EC50 ([1]; Homo sapiens, HEK293, follow-up screen, viability, read-out: ERR-HEK293 Follow-Up Viability EC50 (converted)): 78 nM; IC50 ([1]; Homo sapiens, HEK293, primary screen, concurrent with ERR antagonist assay): ~66 nM; EC50 ([2]; HEK293, follow-up screen, read-out: PGC/ERR-HEK293 Follow-Up Viability EC50 (converted)): 64.3 nM; Percent inhibition of mRNA gene expression, IDH3α (IDH3α; 20 µM): 17.6% and 17.6 ± 4.66%; Percent inhibition of mRNA gene expression, PPARα (PPARα): 14.0 ± 5.17%; Percent inhibition of mRNA gene expression, COX4I1 (COX4I1; 20 µM): 35.3 ± 3.49%; Percent inhibition of mRNA gene expression, Cytochrome C (cytochrome c; 20 µM): 48.3% and 48.3 ± 1.92%
